Measured values as given in publication PMC3462168 (Analytical biochemistry, 2010).
Peptide text beside a SMILES is read from it. * marks the point of attachment. 5FAM = O=C1OC2(c3ccc(O)cc3Oc3cc(O)ccc32)c2ccc(C(=O)*)cc21

Key:
[1] = test system: hRSV; assay: Antiviral activity of C20; assay type: cell-based; details: read-out: EC50, antiviral activity; methods only in supporting information
[2] = molecular target: T1, hRSV F protein 5-Helix Bundle (5HB) (Human respiratory syncytial virus A, UniProt P03420); assay: Competitive FP binding assay; design: species or system hRSV strain A2; details: for inhibition at 100 µM: read-out: % Inhibition (100 µM)
[3] = molecular target: T1, hRSV F protein 5-Helix Bundle (5HB); assay: ELISA of Fl-C35 binding to 5HB; design: species or system hRSV strain A2; details: data in supporting information
[4] = test system: EBV gH/gL complex; details: 5 nM Fl-C35, increasing amount of EBV gH/gL
[5] = test system: EBV gH/gL complex; details: read-out: IC50 of binding to EBV gH/gL protein; cited from earlier work
[6] = test system: hRSV 5HB; assay: FP specificity cross-test: EBV gp42 FITC-30mer against hRSV 5HB; assay type: binding, hRSV strain A2; details: 5 nM FITC-30mer, wide range of 5HB concentrations

Compound: CC[C@H](C)[C@H](N)C(=O)N[C@@H](CO)C(=O)N[C@@H](CCC(N)=O)C(=O)N[C@H](C(=O)N[C@@H](CC(N)=O)C(=O)N[C@@H](CCC(=O)O)C(=O)N[C@@H](CCCCN)C(=O)N[C@H](C(=O)N[C@@H](CC(N)=O)C(=O)N[C@@H](CCC(N)=O)C(=O)N[C@@H](CO)C(=O)N[C@@H](CC(C)C)C(=O)N[C@@H](C)C(=O)N[C@@H](Cc1ccccc1)C(=O)N[C@H](C(=O)N[C@@H](CCCNC(=N)N)C(=O)N[C@@H](CCCCN)C(=O)N[C@@H](CO)C(=O)N[C@@H](CC(=O)O)C(=O)N[C@@H](CCC(=O)O)C(=O)O)[C@@H](C)CC)[C@@H](C)CC)C(C)C [C20] (H-ISQVNEKINQSLAFIRKSDE-OH)
- EC50 [1]: > 12500 nM
- inhibition at 100 µM [2]: > 90%

Compound: CC[C@H](C)[C@H](NC(=O)[C@H](Cc1ccccc1)NC(=O)[C@H](C)NC(=O)[C@H](CC(C)C)NC(=O)[C@H](CO)NC(=O)[C@H](CCC(N)=O)NC(=O)[C@H](CC(N)=O)NC(=O)[C@@H](NC(=O)[C@H](CCCCN)NC(=O)[C@H](CCC(=O)O)NC(=O)[C@H](CC(N)=O)NC(=O)[C@@H](NC(=O)[C@H](CCC(N)=O)NC(=O)[C@H](CO)NC(=O)[C@@H](NC(=O)[C@H](CO)NC(=O)[C@H](C)NC(=O)[C@H](CC(=O)O)NC(=O)[C@H](Cc1ccccc1)NC(=O)[C@H](CCC(=O)O)NC(=O)[C@H](CC(=O)O)NC(=O)[C@H](CO)NC(=O)[C@@H]1CCCN1C(=O)[C@H](Cc1ccccc1)NC(=O)[C@@H](N)C(C)C)[C@@H](C)CC)C(C)C)[C@@H](C)CC)C(=O)N[C@@H](CCCNC(=N)N)C(=O)N[C@@H](CCCCN)C(=O)N[C@@H](CO)C(=O)N[C@@H](CC(=O)O)C(=O)N[C@@H](CCC(=O)O)C(=O)O [C30] (H-VFPSDEFDASISQVNEKINQSLAFIRKSDE-OH)
- inhibition at 100 µM [2]: 100%

Compound: CC[C@H](C)[C@H](NC(=O)[C@H](Cc1ccccc1)NC(=O)[C@H](C)NC(=O)[C@H](CC(C)C)NC(=O)[C@H](CO)NC(=O)[C@H](CCC(N)=O)NC(=O)[C@H](CC(N)=O)NC(=O)[C@@H](NC(=O)[C@H](CCCCN)NC(=O)[C@H](CCC(=O)O)NC(=O)[C@H](CC(N)=O)NC(=O)[C@@H](NC(=O)[C@H](CCC(N)=O)NC(=O)[C@H](CO)NC(=O)[C@@H](NC(=O)[C@H](CO)NC(=O)[C@H](C)NC(=O)[C@H](CC(=O)O)NC(=O)[C@H](Cc1ccccc1)NC(=O)[C@H](CCC(=O)O)NC(=O)[C@H](CC(=O)O)NC(=O)[C@H](CO)NC(=O)[C@@H]1CCCN1C(=O)[C@H](Cc1ccccc1)NC(=O)[C@@H](NC(=O)[C@H](CC(C)C)NC(=O)[C@@H]1CCCN1C(=O)[C@H](CC(=O)O)NC(=O)[C@@H](N)Cc1ccc(O)cc1)C(C)C)[C@@H](C)CC)C(C)C)[C@@H](C)CC)C(=O)N[C@@H](CCCNC(=N)N)C(=O)N[C@@H](CCCCN)C(=O)N[C@@H](CO)C(=O)N[C@@H](CC(=O)O)C(=O)N[C@@H](CCC(=O)O)C(=O)N[C@@H](CC(C)C)C(=O)O [C35] (H-YDPLVFPSDEFDASISQVNEKINQSLAFIRKSDEL-OH)
- IC50 [2]: 38.5 nM
- inhibition at 100 µM [2]: 100%

Compound: CC[C@H](C)[C@H](NC(=O)[C@H](Cc1ccccc1)NC(=O)[C@H](C)NC(=O)[C@H](CC(C)C)NC(=O)[C@H](CO)NC(=O)[C@H](CCC(N)=O)NC(=O)[C@H](CC(N)=O)NC(=O)[C@@H](NC(=O)[C@H](CCCCN)NC(=O)[C@H](CCC(=O)O)NC(=O)[C@H](CC(N)=O)NC(=O)[C@@H](NC(=O)[C@H](CCC(N)=O)NC(=O)[C@H](CO)NC(=O)[C@@H](NC(=O)[C@H](CO)NC(=O)[C@H](C)NC(=O)[C@H](CC(=O)O)NC(=O)[C@H](Cc1ccccc1)NC(=O)[C@H](CCC(=O)O)NC(=O)[C@H](CC(=O)O)NC(=O)[C@H](CO)NC(=O)[C@@H]1CCCN1C(=O)[C@H](Cc1ccccc1)NC(=O)[C@@H](NC(=O)[C@H](CC(C)C)NC(=O)[C@@H]1CCCN1C(=O)[C@H](CC(=O)O)NC(=O)[C@H](Cc1ccc(O)cc1)NC(=O)c1ccc2c(c1)C(=O)OC21c2ccc(O)cc2Oc2cc(O)ccc21)C(C)C)[C@@H](C)CC)C(C)C)[C@@H](C)CC)C(=O)N[C@@H](CCCNC(=N)N)C(=O)N[C@@H](CCCCN)C(=O)N[C@@H](CO)C(=O)N[C@@H](CC(=O)O)C(=O)N[C@@H](CCC(=O)O)C(=O)N[C@@H](CC(C)C)C(=O)O [Fl-C35] (5FAM-YDPLVFPSDEFDASISQVNEKINQSLAFIRKSDEL-OH)
- Specific binding of Fl-C35 to 5HB in ELISA [3]: confirmed
- Binding of Fl-C35 to EBV gH/gL complex (negative control) [4]: no evidence of nonspecific binding

Compound: KPNVEVWPVAAPPPVAEQEYGDKEVKLPHW [FITC-30mer]
- IC50 [5]: 1.3 nM
- Binding of EBV gp42 FITC-30mer to hRSV 5HB (negative control) [6]: no evidence of nonspecific binding
